These results are taken from ChEMBL document CHEMBL1135159, “Pyrazolo[3,4-d]pyrimidines containing an extended 3-substituent as potent inhibitors of Lck -- a selectivity insight” (Bioorg Med Chem Lett, 2002).

Some results are limits rather than exact numbers.

The test system of series [1] is Mus musculus. Briefly: Tested in vivo for inhibition ofTCR stimulated (alpha-CD3 mAb) IL-2 production in mice after oral dosing. Format: functional.
In series [2] the test system is Mus musculus. Briefly: Tested in vivo for inhibition ofTCR stimulated (alpha-CD3 mAb) IL-2 production in mice after oral dosing for 8 hr. In kind it is functional. Set-up: concentration or dose not given beside the values.
The species entered for series [3] is Homo sapiens. Briefly: Inhibition of alpha-CD3 mAb induced IL-2 production in human whole blood. Format: functional, organism-based.
The subject of series [4] is Mus musculus. Put plainly: Tested in vivo for inhibition ofTCR stimulated (alpha-CD3 mAb) IL-2 production in mice after oral dosing for 18 hr. Format: functional. Set-up: concentration or dose not given beside the values.
The target in series [5] is T1, Vascular endothelial growth factor receptor 2 (Homo sapiens, UniProt P35968). Put plainly: Inhibition of human VEGF-receptor 2 (kdr) kinase.
T1 sequence (P35968 whole entry): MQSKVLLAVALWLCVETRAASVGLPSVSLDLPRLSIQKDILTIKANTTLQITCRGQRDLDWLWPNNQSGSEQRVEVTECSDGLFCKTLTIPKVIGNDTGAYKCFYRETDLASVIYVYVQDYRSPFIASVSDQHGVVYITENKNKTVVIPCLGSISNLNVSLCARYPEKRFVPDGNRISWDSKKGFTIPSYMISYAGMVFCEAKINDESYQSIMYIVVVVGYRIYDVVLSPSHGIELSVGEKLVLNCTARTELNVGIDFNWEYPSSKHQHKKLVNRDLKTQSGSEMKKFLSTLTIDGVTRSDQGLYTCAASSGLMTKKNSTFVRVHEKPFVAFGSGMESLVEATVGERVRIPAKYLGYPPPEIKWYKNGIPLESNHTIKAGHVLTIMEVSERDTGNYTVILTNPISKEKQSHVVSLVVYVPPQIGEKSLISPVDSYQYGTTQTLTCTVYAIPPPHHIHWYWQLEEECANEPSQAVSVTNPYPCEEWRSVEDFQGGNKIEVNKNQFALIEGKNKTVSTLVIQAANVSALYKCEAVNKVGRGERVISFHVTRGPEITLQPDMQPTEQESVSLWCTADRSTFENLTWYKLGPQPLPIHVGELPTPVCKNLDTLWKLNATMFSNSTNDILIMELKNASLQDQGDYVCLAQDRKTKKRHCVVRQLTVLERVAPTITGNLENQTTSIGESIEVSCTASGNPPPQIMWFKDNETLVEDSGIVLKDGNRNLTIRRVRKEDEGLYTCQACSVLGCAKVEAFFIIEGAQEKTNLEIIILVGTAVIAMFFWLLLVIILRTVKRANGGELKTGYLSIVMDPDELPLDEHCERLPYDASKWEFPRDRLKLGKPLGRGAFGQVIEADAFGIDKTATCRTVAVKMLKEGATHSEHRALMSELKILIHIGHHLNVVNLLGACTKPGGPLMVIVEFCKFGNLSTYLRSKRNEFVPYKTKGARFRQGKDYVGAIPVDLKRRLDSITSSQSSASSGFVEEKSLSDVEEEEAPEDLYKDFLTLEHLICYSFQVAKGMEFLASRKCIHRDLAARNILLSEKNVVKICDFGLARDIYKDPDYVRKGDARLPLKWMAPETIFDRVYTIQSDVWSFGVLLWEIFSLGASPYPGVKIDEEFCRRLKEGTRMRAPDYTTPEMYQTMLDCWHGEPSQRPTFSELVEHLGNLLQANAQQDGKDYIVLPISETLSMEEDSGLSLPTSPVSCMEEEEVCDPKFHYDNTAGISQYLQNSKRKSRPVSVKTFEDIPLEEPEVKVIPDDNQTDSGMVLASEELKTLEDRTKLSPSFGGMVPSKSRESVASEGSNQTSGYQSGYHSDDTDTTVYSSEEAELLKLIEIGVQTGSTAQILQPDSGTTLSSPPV
The subject of series [6] is Rattus norvegicus. Put plainly: In vivo clearance after 5 mg/kg dose. Format: ADME, organism-based. Set-up: dose 5 mg/kg.
Series [7] in a line: Compound was evaluated for pharmacokinetic parameter percent bioavailability at 18 h. Format: ADME, organism-based. The settings on record: rat, in vivo.
The nature of series [8]: Compound was evaluated for pharmacokinetic parameter volume of distribution. In kind it is ADME, organism-based. As to conditions: rat, in vivo.
In series [9] the target is T1, Vascular endothelial growth factor receptor 2. Put plainly: Inhibition of Vascular endothelial growth factor receptor 2.
A short description of series [10]: Compound was evaluated for pharmacokinetic parameter maximum time period. As to conditions: rat, in vivo. In kind it is ADME, organism-based.
In series [11] the target is Tyrosine-protein kinase Lck (Homo sapiens, UniProt P06239). Put plainly: Inhibition of human p56 Lck tyrosine kinase.
Tyrosine-protein kinase Lck, sequence (P06239 whole entry): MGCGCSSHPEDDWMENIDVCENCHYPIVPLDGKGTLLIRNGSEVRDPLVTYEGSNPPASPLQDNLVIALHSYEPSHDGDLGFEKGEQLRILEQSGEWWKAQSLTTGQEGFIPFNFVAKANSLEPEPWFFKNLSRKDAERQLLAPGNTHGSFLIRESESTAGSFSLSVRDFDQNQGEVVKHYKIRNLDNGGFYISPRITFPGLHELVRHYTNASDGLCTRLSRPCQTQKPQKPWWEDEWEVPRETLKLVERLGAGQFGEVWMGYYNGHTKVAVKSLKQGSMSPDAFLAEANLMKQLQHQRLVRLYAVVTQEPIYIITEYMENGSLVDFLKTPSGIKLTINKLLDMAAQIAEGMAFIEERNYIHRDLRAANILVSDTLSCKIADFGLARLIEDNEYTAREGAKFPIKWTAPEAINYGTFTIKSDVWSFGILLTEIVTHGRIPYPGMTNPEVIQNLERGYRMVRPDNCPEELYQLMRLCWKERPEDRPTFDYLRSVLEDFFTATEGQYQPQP
The species entered for series [12] is Rattus norvegicus. Briefly: Compound was evaluated for pharmacokinetic parameter maximum plasma concentration. Format: ADME, organism-based. As to conditions: in vivo.
The nature of series [13]: Compound was evaluated for pharmacokinetic parameter percent bioavailability at 8 h. Format: ADME, organism-based. As to conditions: rat, in vivo.
Series [14] concerns the target Proto-oncogene tyrosine-protein kinase Src (Homo sapiens, UniProt P12931). Put plainly: Inhibition of Src protein tyrosine kinase.
Series [15] concerns the target Angiopoietin-1 receptor (Homo sapiens, UniProt Q02763). Briefly: Inhibition of TIE-2 kinase.

Proto-oncogene tyrosine-protein kinase Src, sequence (P12931 2-536 limits assumed): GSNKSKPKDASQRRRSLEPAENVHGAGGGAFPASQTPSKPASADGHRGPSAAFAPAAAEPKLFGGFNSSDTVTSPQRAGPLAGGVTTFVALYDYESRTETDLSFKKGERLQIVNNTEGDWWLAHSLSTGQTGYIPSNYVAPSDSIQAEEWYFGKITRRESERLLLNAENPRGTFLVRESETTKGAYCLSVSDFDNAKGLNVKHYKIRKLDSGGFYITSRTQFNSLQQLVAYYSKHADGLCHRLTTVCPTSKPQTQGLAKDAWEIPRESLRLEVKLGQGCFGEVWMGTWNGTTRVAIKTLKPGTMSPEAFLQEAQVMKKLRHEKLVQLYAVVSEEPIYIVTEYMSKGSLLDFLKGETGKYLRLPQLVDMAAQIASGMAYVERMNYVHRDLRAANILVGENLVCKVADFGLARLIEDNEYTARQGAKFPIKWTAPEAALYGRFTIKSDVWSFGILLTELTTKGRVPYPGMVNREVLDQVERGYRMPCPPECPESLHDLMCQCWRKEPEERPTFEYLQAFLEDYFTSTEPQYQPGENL
Angiopoietin-1 receptor, sequence (Q02763 whole entry): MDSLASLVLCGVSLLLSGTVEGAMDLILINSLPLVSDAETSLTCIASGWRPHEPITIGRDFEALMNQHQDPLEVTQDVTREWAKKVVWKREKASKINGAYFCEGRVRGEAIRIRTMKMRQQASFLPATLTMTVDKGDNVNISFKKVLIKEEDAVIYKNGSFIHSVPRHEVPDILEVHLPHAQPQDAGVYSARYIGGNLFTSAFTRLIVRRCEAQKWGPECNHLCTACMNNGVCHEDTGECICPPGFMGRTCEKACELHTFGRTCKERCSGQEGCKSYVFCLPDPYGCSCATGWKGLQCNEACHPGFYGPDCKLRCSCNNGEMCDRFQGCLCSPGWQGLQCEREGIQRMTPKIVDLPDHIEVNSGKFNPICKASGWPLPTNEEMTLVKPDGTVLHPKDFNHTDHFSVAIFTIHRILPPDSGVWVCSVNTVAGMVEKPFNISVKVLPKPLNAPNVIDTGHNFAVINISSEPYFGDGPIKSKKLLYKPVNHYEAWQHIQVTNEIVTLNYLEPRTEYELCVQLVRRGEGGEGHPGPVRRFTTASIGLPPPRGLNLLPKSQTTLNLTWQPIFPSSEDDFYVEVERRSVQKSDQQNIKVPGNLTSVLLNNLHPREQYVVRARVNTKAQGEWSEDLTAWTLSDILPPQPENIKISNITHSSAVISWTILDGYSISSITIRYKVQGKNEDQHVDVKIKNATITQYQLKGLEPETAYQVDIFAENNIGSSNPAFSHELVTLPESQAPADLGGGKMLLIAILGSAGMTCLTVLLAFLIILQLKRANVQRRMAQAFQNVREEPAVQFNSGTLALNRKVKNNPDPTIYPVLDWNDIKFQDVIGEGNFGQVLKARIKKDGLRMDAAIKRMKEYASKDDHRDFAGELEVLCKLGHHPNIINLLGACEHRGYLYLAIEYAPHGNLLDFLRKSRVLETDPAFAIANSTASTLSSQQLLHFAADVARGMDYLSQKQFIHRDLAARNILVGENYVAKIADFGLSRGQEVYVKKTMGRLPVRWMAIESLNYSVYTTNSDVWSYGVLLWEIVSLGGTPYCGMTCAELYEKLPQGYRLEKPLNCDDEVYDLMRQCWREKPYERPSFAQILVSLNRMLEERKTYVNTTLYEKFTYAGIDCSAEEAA

In turn, `COc1cc(-c2nn([C@H]3CC[C@H](N4CCN(C)CC4)CC3)c3ncnc(N)c23)ccc1NC(=O)c1cc2ccccc2o1` gave a median effective dose (ED50) in [1] of 8.5 mg/kg. For the same molecule, the ED90 in [1] is 12.5 mg/kg. Moreover, the Inhibition in series [2] was 48%; in [4], below 10%. Also, the IC50 was 6 nM in series [3] and above 50000 nM in series [5].

For the molecule `COc1cc(Cc2nn([C@H]3CC[C@H](N4CCN(C)CC4)CC3)c3ncnc(N)c23)ccc1NC(=O)[C@@H]1C[C@H]1c1ccccc1`, in series [5], the IC50 was above 50000 nM.

Consider `CN1CCN([C@H]2CC[C@H](n3nc(-c4ccc(Oc5ccccc5)cc4)c4c(N)ncnc43)CC2)CC1`, for which it took a dose of 1.5 mg/kg to reach the 50% effect level in [1] (ED50). In series [1], this molecule came in with an ED90 of 6 mg/kg. Besides, the Clp in [6] turned out to be 20 mL/min/kg. This molecule also returned a bioavailability in series [7] of 69%. In [8], this molecule returned a Vd of 9.6 L/kg. Further, the Inhibition in series [2] is given as 84%; in [4], 49%. The IC50 in series [9] came to 5320 nM; in [11] it was 40 nM. The Tmax in [10] amounted to 1.5 h. In series [12], this molecule returned a Cmax of 0.62 uM l-1. In series [13], this molecule gave a half-life of 5.2 h.

`COc1cc(-c2nn([C@H]3CC[C@H](N4CCN(C)CC4)CC3)c3ncnc(N)c23)ccc1NC(=O)Nc1ccccc1`: the IC50 in [5] is 263 nM.

With `COc1cc(-c2nn([C@H]3CC[C@H](N4CCN(C)CC4)CC3)c3ncnc(N)c23)ccc1NC(=O)CC(C)(C)c1ccccc1`, the ED50 in series [1] is 2 mg/kg. This molecule also yielded an ED90 in [1] of 12.5 mg/kg. Also, the Inhibition stood at 98% in [2] and 22% in series [4]. The IC50 was found to be 8 nM in series [3] and 34600 nM in [5].

`COc1cc(-c2nn([C@H]3CC[C@H](N4CCN(C)CC4)CC3)c3ncnc(N)c23)ccc1NC(=O)C(C)(C)Cc1ccccc1` showed an IC50 in [5] above 50000 nM.

Consider `COc1cc(-c2nn([C@H]3CC[C@H](N4CCN(C)CC4)CC3)c3ncnc(N)c23)ccc1NS(=O)(=O)c1ccccc1`, for which the IC50 in [5] is above 50000 nM.

Molecule `CN1CCN([C@H]2CC[C@H](n3nc(-c4ccc(C(=O)c5ccccc5)cc4)c4c(N)ncnc43)CC2)CC1` returned an IC50 in series [5] above 50000 nM.

For the molecule `CN1CCN([C@H]2CC[C@H](n3nc(-c4ccc(Nc5ccccc5)cc4)c4c(N)ncnc43)CC2)CC1`, in series [1], the ED50 amounted to 2.5 mg/kg. In [1], this molecule returned an ED90 of 10.7 mg/kg. Moreover, the Inhibition in [2] is 95%; in [4], below 10%. Further, the IC50 in series [3] is 135 nM; in series [5], 3810 nM.

In the case of `COc1cc(-c2nn([C@H]3CC[C@H](N4CCN(C)CC4)CC3)c3ncnc(N)c23)ccc1NC(=O)c1ccccc1`, it took a dose of 9 mg/kg to reach the 50% effect level in [1] (ED50). The ED90 in series [1] is 23 mg/kg. Moreover, the Inhibition in series [2] is given as 37%; in series [4], below 10%. For the same molecule, the results for the IC50 in series [3] and in series [5] were 50 nM and above 50000 nM, respectively.

In turn, `CN1CCN([C@H]2CC[C@H](n3nc(-c4ccc(NCc5cc6ccccc6[nH]5)cc4)c4c(N)ncnc43)CC2)CC1` displayed an IC50 in series [5] of 435 nM.

The molecule `COc1cc(-c2nn([C@H]3CC[C@H](N4CCN(C)CC4)CC3)c3ncnc(N)c23)ccc1NC(=O)CCc1ccccc1` registered an ED50 in series [1] of 5 mg/kg. Besides, in series [1], the ED90 came to 30 mg/kg. For the same molecule, the figures for the Inhibition in series [2] and in [4] were 63% and below 10%, respectively. Besides, the results for the IC50 in series [3] and in series [5] were 38 nM and above 50000 nM, respectively.

With `COc1cc(-c2nn([C@H]3CC[C@H](N4CCN(C)CC4)CC3)c3ncnc(N)c23)ccc1NCc1ccccc1`, the IC50 in series [9] was above 50000 nM; in series [11], 55 nM.

For `CN1CCN([C@H]2CC[C@H](n3cc(-c4ccc(Oc5ccccc5)cc4)c4c(N)ncnc43)CC2)CC1`, the ED50 in [1] is 2.5 mg/kg. The IC50 in series [14] was 42 nM; in series [15] it was 250 nM; in series [11], 15 nM.

Take `COc1cc(-c2nn([C@H]3CC[C@H](N4CCN(C)CC4)CC3)c3ncnc(N)c23)ccc1NC(=O)OCc1ccccc1`: the ED50 in series [1] amounted to 3 mg/kg. This molecule returned an ED90 in [1] of 14 mg/kg. The Inhibition in [2] came out at 51%; in [4], 14%. Also, the IC50 came out at 2 nM in series [3] and 34200 nM in [5].

One may read the ED50 as the dose that gives a 50% effect, or the effect in half of the subjects. What is called Inhibition is how much of the control response was suppressed. The IC50 is the concentration at which inhibition is half-maximal. As usually defined, the bioavailability is dose-corrected exposure relative to a reference, in per cent. One may read the Vd as the apparent volume that relates the amount in the body to the concentration in plasma or blood. Usually Tmax stands for the time at which the peak concentration occurs. What is called half-life is how long it takes for the measured level to halve.
